# Measured values published in patent US10793519B2, “Ultra short acting anti-arrhythmic agents” (Academic Pharmaceuticals Incorporated, priority 2018, dated 2020).
# Where two headings read alike, the source gives them in different places.
# Key:
# hERG channel = hERG channel (Homo sapiens, UniProt Q12809); assay: whole-cell voltage-clamp tail current / current density experiments in hERG-HEK cells
# Procedure: A set of whole-cell, voltage-clamp experiments was performed using a HEKA® EPC 9 amplifier. Data was recorded and analyzed using the HEKA® Patchmaster and Fitmaster software. At the time of the recordings, cell culture media was replaced by a bath solution (containing (mM): 137 NaCl, 4 KCl, 1.8 CaCl2, 10 HEPES, and 10 glucose, pH adjusted to 7.4 with NaOH). The pipette solution containing different concentrations of the drug to test was introduced. Borosilicate glass electrodes (tip resistant 2-5 MΩ) were filled with internal solution (containing (mM): 130 KCl, 1 MgCl2, 5 EGTA, 5 MgATP and 10 HEPES, pH adjusted to 7.2 with KOH). Tail currents were measured at repolarizing test potentials (−100 to +40 mV, 4 seconds each) following a one second depolarizing step to +60 mV from a holding potential of −80 mV. Cell recordings were performed in a minimum of 2 plates (3-5 cells/plate) for each EFV concentration and compared to control.
# In hERG-HEK cells that were transiently […] with CYP2B6*1 cDNA, tail current recordings were performed using the following 2-sweep voltage clamp protocol: membrane potential was held at −80 mV, increased to 60 mV (1 second), and currents were measured during two repolarizing steps at −100 and −20 mV (5 seconds each). This protocol was performed twice for each cell at 1 and 2 minutes following cytosolic access and exposure to the pipette solution to evaluate the influence of incubation time on drug mediated alterations in hERG channel conductivity. A sigmoidal Emax model was fit to the EFV inhibitory effect on 1hERG using Prism (GraphPad Software, Inc., La Jolla, Calif.).
# Sotalol ester, soestolol (ester A, Table 1, Example 1) and its corresponding acid (ester C) were evaluated. The studies were performed blinded with the operator unaware of the chemical structure of Ester A or Ester C.
# [1] = cited from earlier work
# Chain of hERG channel (Q12809 whole entry): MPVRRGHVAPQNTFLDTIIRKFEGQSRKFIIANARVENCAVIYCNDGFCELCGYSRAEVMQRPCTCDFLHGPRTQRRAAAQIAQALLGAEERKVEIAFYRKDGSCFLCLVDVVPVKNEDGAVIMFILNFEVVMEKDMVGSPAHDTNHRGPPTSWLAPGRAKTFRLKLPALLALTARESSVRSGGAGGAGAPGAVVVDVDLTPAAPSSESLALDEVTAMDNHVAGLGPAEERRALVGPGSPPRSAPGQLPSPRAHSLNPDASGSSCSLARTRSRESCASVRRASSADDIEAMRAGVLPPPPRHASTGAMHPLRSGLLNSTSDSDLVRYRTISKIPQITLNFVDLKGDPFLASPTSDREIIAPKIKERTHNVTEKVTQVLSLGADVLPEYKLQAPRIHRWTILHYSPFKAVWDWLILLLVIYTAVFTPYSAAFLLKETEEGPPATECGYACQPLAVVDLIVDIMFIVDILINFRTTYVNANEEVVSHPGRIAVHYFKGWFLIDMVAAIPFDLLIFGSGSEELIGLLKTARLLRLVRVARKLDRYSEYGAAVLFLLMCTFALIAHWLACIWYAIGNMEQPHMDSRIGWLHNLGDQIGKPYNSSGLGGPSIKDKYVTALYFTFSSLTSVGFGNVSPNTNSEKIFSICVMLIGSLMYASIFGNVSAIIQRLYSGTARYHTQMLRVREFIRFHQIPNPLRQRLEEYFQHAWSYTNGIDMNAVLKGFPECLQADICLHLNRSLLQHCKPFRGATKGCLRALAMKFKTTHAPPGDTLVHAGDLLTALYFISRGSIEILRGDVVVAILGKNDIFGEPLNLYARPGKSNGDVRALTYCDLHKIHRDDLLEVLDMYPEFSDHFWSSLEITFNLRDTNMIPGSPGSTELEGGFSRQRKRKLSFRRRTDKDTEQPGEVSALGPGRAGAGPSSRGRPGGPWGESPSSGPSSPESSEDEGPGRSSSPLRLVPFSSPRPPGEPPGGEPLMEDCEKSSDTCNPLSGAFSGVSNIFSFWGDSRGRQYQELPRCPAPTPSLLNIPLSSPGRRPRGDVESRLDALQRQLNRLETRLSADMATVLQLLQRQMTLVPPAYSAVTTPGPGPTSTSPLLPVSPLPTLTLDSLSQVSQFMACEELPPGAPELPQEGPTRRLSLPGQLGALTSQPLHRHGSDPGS
compound,measurement,setting,value
COC(=O)CS(=O)(=O)Nc1ccc(C(O)CNC(C)C)cc1 (stereo not drawn) [Ester A],"inhibition of K current (current density), FIG. 1",hERG channel,dose dependent reduction in current
same,"potency on K current compared with sotalol, FIG. 1",hERG channel,significantly more potent than the corresponding sotalol dose
CC(C)NCC(O)c1ccc(NS(=O)(=O)CC(=O)O)cc1 (stereo not drawn) [Ester C],"activity on current, FIG. 2",hERG channel,no activity
CC(C)NCC(O)c1ccc(NS(C)(=O)=O)cc1 (stereo not drawn) [sotalol],"reduction in current, FIG. 2",hERG channel; 5 μM,dose related reduction in current
same,"reduction in current, FIG. 2",hERG channel; 50 μM,dose related reduction in current
same,"inhibition of K current (current density), FIG. 1",hERG channel; 5 μm,reduction in current
same,"inhibition of K current (current density), FIG. 1",hERG channel; 10 μm,further reduction
same,half-life,"[1]; in man, on average",twelve
same,terminal elimination half-life,[1]; in vivo,10 to 20 h
